Test: mn = molality of the nth substance listed, in mol/kg
Settings: 101 kPa, Liquid; for viscosity: Capillary tube (Ostwald / Ubbelohde) method; for speed of sound: Linear variable-path acoustic interferometer

O=[N+]([O-])[O-].O=[N+]([O-])[O-].[Mg+2] [magnesium nitrate] + O
Settings | speed of sound, 273.15 K [m/s] | speed of sound, 278.15 K [m/s] | speed of sound, 283.15 K [m/s] | speed of sound, 288.15 K [m/s] | speed of sound, 293.15 K [m/s] | viscosity, 273.15 K [mPa·s] | viscosity, 278.15 K [mPa·s] | viscosity, 283.15 K [mPa·s] | viscosity, 288.15 K [mPa·s] | viscosity, 293.15 K [mPa·s]
m1 = 0.0145 | 1410.5 | 1434.8 | 1449.2 | 1471.7 | 1484.3 | 1.852 | 1.556 | 1.339 | 1.164 | 1.021
m1 = 0.0528 | 1415.6 | 1438.7 | 1458.5 | 1477.1 | 1486.7 | 1.874 | 1.58 | 1.357 | 1.18 | 1.038
m1 = 0.2491 | 1430.4 | 1451.6 | 1470.7 | 1487.6 | 1501.9 | 1.958 | 1.654 | 1.429 | 1.244 | 1.092
m1 = 0.3405 | 1443 | 1456.8 | 1475.6 | 1491.5 | 1507 | – | – | – | – | –
m1 = 0.5931 | – | – | – | – | – | 2.122 | 1.805 | 1.564 | 1.367 | 1.209
m1 = 0.6173 | 1469.3 | 1486.9 | 1503.7 | 1517.8 | 1530.1 | – | – | – | – | –
m1 = 0.896 | 1498.6 | 1514.8 | 1529 | 1541.2 | 1553.1 | – | – | – | – | –
m1 = 0.9898 | 1510.3 | 1524.8 | 1538.8 | 1550.4 | 1561.5 | 2.391 | 2.047 | 1.775 | 1.554 | 1.378
m1 = 1.262 | 1538 | 1551.3 | 1563.1 | 1573.8 | 1582.5 | 2.659 | 2.268 | 1.971 | 1.727 | 1.53
m1 = 1.525 | 1566.3 | 1577.1 | 1587.6 | 1596.3 | 1604.4 | – | – | – | – | –
m1 = 1.827 | 1600.5 | 1610.1 | 1617.9 | 1625.4 | 1631.9 | 3.232 | 2.765 | 2.4 | 2.098 | 1.859
m1 = 2.131 | 1632 | 1639.7 | 1645.2 | 1650.6 | – | 3.587 | 3.062 | 2.663 | 2.33 | 2.064
m1 = 2.493 | 1664.6 | 1670.1 | 1675.2 | 1677.8 | – | – | – | – | – | –
m1 = 2.584 | – | – | – | – | – | 4.348 | 3.696 | 3.207 | 2.821 | 2.471
m1 = 2.793 | 1693.2 | 1696.9 | 1700.3 | 1703.5 | – | – | – | – | – | –
m1 = 3.096 | – | – | – | – | – | 5.355 | 4.538 | 3.946 | 3.408 | 3.002
m1 = 3.118 | 1721.2 | 1723.7 | 1725.7 | 1727.3 | – | – | – | – | – | –
m1 = 3.17 | 1730.6 | 1733 | 1734.2 | 1735.3 | – | – | – | – | – | –
m1 = 3.329 | – | – | – | – | – | 5.964 | 5.056 | 4.336 | 3.754 | 3.308
m1 = 3.501 | 1752.4 | 1753.7 | 1754.9 | 1755.4 | – | – | – | – | – | –
m1 = 3.704 | – | – | – | – | – | 6.966 | 5.857 | 5.02 | 4.345 | 3.807
m1 = 3.757 | 1771.9 | 1772.4 | 1771.9 | 1771.3 | – | – | – | – | – | –
m1 = 4.039 | – | – | – | – | – | 8.21 | 6.897 | 5.864 | 5.051 | 4.432
m1 = 4.051 | 1791.3 | 1791.4 | 1790.4 | 1789.6 | – | – | – | – | – | –
m1 = 4.285 | 1808.5 | 1807.3 | 1806.3 | 1804.5 | – | – | – | – | – | –
m1 = 4.403 | 1820.2 | 1815.4 | 1813.5 | 1810.8 | – | – | – | – | – | –
m1 = 4.728 | – | – | – | – | – | 11.85 | 9.74 | 8.233 | 7.067 | 6.098
m1 = 4.883 | – | – | 1847.2 | 1842.3 | – | – | – | – | – | –
m1 = 4.907 | – | – | – | – | – | – | – | – | 7.798 | 6.799

— the NIST ThermoML archive (doi:10.1021/je060107n)
